Results reported in US9303042B2, “Triazolothienopyrimidine compound inhibitors of urea transporters and methods of using inhibitors” (The Regents of the University of California, priority 2012, dated 2016).

What was measured:
UT-B = target: T1, UT-B (Mus musculus, UniProt Q8VHL0); experiment: Erythrocyte lysis assay of UT-B inhibition; type: cell-based; set-up: Screening was performed using mouse erythrocytes, which strongly express UT-B; endogenous in cells; host or cells: erythrocytes in whole blood of wild-type CD1 mice; conditions: Table 2, synthesized inhibitors, red blood cell lysis assay (n = 3), single-site saturation model; read-out: IC50
T1 sequence (Q8VHL0 1-384): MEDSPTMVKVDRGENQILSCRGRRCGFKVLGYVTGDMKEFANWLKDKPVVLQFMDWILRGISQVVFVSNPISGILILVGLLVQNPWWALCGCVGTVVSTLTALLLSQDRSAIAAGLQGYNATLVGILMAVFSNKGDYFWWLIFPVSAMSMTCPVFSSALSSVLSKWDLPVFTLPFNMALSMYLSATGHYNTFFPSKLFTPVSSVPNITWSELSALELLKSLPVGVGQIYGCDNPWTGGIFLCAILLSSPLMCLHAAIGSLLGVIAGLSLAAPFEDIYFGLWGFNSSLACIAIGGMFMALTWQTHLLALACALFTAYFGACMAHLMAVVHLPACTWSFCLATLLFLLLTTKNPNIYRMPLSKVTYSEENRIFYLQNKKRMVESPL
Outline: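 Mouse erythrocytes (expressing UT-B and AQP1) subjected to an outward acetamide gradient; UT-B inhibition blocks acetamide efflux, causing swelling and lysis. Lysis quantified by absorbance at 710 nm within 5 min of hypo-osmolar shock.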

[1] = In vitro metabolic stability in hepatic microsomes; type: in vitro ADME, rat; conditions: for % Remaining: parent molecule after 30 min incubation with rat liver microsomes
Description: Compounds, each at 5 μM, were incubated for specified times at 37° C. with rat liver microsomes (1 mg protein/ml; Sigma-Aldrich, St. Louis, Mo.) in potassium phosphate buffer (100 mM) containing 1 mM NADPH. The mixture was then chilled on ice, and 0.5 ml of ice-cold ethyl acetate was added.

[2] = LC/MS analysis of compound in mouse kidney, blood and urine; conditions: for many hours after intraperitoneal bolus 400 μg
Description: (§1) In some studies, mice were placed on low, normal or […] diets (4%, 20% or 40% casein, Harlan Labs.) for 1 week prior study of dDAVP effects. […] Urea concentration was determined by a colorimetric enzymatic assay as described above. Measurements were also done in the absence of dDAVP in which urine was collected during free access to food and water.
Kidneys were weighed, mixed with acetic acid (100 μL per 1 g tissue) and ethyl acetate (10 mL per 1 g tissue), and homogenized.

mice = experiment: Urinary concentration in mice; type: in vivo, mouse
Description: as §1, with “water. […]” for “water.”

TMEM16A = target: T2, TMEM16A (Homo sapiens, UniProt Q5XXA6); experiment: TMEM16A calcium-activated chloride conductance by short-circuit current; type: cell-based; conditions: 100 μM
T2 construct: expressed in transfected cells
T2 sequence (Q5XXA6 1-986): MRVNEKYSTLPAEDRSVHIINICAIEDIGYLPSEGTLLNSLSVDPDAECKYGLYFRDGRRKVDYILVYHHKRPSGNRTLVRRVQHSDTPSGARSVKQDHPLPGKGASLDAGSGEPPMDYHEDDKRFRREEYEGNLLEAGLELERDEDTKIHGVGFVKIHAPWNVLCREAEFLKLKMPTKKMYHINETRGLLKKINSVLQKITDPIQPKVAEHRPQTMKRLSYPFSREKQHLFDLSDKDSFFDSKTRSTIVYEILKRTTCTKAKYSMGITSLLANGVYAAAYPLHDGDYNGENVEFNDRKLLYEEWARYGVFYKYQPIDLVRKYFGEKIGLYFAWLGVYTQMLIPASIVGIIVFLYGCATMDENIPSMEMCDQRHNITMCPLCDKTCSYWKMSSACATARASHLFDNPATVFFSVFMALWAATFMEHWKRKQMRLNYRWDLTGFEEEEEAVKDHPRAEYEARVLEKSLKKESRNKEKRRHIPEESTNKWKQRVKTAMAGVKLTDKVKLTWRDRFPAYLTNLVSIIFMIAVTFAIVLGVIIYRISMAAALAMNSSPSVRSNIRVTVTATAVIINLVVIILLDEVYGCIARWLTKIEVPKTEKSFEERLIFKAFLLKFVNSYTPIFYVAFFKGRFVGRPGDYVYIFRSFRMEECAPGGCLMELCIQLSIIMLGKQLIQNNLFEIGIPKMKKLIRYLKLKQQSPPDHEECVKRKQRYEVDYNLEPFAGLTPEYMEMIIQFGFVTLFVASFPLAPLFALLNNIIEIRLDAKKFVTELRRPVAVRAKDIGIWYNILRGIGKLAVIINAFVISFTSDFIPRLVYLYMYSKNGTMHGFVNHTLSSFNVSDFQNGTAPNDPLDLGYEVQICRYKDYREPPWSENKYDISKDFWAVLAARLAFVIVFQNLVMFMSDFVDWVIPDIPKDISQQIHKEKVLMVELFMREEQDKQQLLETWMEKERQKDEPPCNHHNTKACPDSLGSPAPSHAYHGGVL
Description: CFTR chloride conductance was measured by short-circuit current analysis in Fisher rat thyroid (FRT) cells stably expressing CFTR, as described (see, e.g., Ma et al., J. Biol. Chem. (2002), supra). CFTR chloride conductance was stimulated by forskolin and inhibited by a thiazolidinone compound that inhibits CFTR (CFTRinh-172). TMEM16A calcium-activated chloride conductance was measured by short-circuit current analysis in FRT cells stably expressing TMEM16A, as described (see, e.g., Namkung et al., J. Biol. Chem. 286:2365-2374, 2011. TMEM16A was stimulated by ATP and inhibited by tannic acid (100 μM). Cytotoxicity was measured in MDCK using the MTT assay [3(4,5-dimethyl-thiazol-2-yl)-2,5-diphenyl tetrazolium bromide] by standard procedures.

CFTR = target: T3, CFTR (Homo sapiens, UniProt P13569); experiment: CFTR chloride conductance by short-circuit current; type: cell-based; conditions: 20 μM
T3 construct: expressed in transfected cells
T3 sequence (P13569 whole entry): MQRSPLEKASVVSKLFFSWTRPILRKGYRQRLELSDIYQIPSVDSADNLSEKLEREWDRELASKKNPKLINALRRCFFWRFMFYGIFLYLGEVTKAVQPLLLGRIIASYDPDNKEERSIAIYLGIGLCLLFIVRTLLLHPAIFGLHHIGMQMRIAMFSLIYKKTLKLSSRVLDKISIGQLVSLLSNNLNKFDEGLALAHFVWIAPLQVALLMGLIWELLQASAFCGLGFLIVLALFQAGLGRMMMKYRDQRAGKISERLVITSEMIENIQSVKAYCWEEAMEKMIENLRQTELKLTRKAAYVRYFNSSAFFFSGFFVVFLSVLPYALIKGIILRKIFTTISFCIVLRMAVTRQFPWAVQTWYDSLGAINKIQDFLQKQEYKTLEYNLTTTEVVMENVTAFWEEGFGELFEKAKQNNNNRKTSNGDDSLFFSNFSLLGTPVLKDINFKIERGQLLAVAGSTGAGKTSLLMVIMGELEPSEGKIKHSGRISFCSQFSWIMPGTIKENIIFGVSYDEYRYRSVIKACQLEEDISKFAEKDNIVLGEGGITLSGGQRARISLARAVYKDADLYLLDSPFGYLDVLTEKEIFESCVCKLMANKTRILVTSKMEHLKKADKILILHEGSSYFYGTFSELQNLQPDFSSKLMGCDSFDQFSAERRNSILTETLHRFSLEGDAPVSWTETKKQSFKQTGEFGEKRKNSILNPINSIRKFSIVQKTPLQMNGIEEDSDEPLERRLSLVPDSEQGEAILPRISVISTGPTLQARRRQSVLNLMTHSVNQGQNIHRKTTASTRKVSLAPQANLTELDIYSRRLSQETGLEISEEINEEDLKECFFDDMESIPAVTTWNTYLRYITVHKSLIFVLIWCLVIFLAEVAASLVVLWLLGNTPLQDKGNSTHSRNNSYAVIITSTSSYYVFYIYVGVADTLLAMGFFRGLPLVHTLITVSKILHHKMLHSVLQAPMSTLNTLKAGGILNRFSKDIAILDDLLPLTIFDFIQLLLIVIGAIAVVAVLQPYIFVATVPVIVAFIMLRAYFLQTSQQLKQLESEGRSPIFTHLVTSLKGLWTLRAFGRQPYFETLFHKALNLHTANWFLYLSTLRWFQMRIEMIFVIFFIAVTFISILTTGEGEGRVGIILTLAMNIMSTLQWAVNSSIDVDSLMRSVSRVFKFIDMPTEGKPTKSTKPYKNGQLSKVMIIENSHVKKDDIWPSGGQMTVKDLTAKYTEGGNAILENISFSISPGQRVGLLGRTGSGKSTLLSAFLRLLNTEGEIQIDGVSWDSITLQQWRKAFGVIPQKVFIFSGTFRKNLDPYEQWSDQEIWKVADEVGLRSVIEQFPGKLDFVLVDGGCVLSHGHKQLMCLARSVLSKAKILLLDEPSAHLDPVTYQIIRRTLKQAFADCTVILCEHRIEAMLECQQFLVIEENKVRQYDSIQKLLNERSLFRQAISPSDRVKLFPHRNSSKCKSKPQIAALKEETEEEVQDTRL

With `COc1ccc(CNc2nc3c(S(=O)(=O)c4ccc(C(C)C)cc4)nnn3c3ccsc23)cc1` [Compound 3e, [3-(4-Isopropyl-benzenesulfonyl)-thieno[2,3-e][1,2,3]triazolo[1,5-a]pyrimidin-5-yl]-(4-methoxy-benzyl)-amine] the IC50 (UT-B) was 5.29 µM and the “% Remaining” value [1] was 7%.

In the case of `COc1ccc(S(=O)(=O)c2nnn3c2nc(NCc2cccs2)c2sccc23)cc1` [Compound 3f, [3-(4-Methoxy-benzenesulfonyl)-thieno[2,3-e][1,2,3]triazolo[1,5-a]pyrimidin-5-yl]-thiophen-2-ylmethyl-amine], the IC50 (UT-B) is reported as 0.104 µM and the “% Remaining” value [1] is reported as 6%.

For `O=S(=O)(c1cccs1)c1nnn2c1nc(NCc1cccs1)c1sccc12` [Compound 3g, [3-(Thiophene-2-sulfonyl)-thieno[2,3-e][1,2,3]triazolo[1,5-a]pyrimidin-5-yl]-thiophen-2-ylmethyl-amine], the IC50 (UT-B) was 0.196 µM and the “% Remaining” value [1] was under 5%.

In the case of `O=S(=O)(c1ccc(F)cc1)c1nnn2c1nc(NCc1cccs1)c1sccc12` [Compound 3h, [3-(4-Fluoro-benzenesulfonyl)-thieno[2,3-e][1,2,3]triazolo[1,5-a]pyrimidin-5-yl]-thiophen-2-ylmethyl-amine], the IC50 (UT-B) is reported as 0.468 µM and the “% Remaining” value [1] is reported as 27%.

With `O=S(=O)(c1ccc(Br)cc1)c1nnn2c1nc(NCc1cccs1)c1sccc12` [Compound 3i, [3-(4-Bromo-benzenesulfonyl)-thieno[2,3-e][1,2,3]triazolo[1,5-a]pyrimidin-5-yl]-thiophen-2-ylmethyl-amine] the IC50 (UT-B) was 0.032 µM, the “metabolic stability (in words)” value ([1]; hepatic microsomes) was “improved metabolic stability” and the “% Remaining” value [1] was 60%.

In the case of `CC(C)c1ccc(S(=O)(=O)c2nnn3c2nc(NCc2cccc4ccccc24)c2sccc23)cc1` [Compound 3j, [3-(4-Isopropyl-benzenesulfonyl)-thieno[2,3-e][1,2,3]triazolo[1,5-a]pyrimidin-5-yl]-naphthalen-1-ylmethyl-amine], the IC50 (UT-B) is reported as over 2.5 µM and the “% Remaining” value [1] is reported as 45%.

In the case of `CC(F)(F)c1ccc(S(=O)(=O)c2nnn3c2nc(NCc2cccs2)c2sccc23)cc1` [Compound 3k, {3-[4-(1,1-Difluoro-ethyl)-benzenesulfonyl]-thieno[2,3-e][1,2,3]triazolo[1,5-a]pyrimidin-5-yl}-thiophen-2-ylmethyl-amine], the “concentrations in blood, kidney and urine” value [2] is reported as under 1000 nM, the “reduction of urine osmolality” value (mice; 400 μg intraperitoneal, dDAVP 1 h later, vs formulation alone) is reported as “approximately 0.5 Osm/kg H2O” and the “t1/2 for disappearance in hepatic microsomes” value ([1]; hepatic microsomes, NADPH) is reported as “approximately 120 min”. For the same molecule, the “% Remaining” value [1] was 96% and the “stability in vitro compared to UTBinh 14” value ([1]; ratio of microsomal t1/2) was “approximately 40 fold”.

For `O=C(OC[C@H]1O[C@@H](OC(=O)c2cc(O)c(O)c(OC(=O)c3cc(O)c(O)c(O)c3)c2)[C@H](OC(=O)c2cc(O)c(O)c(OC(=O)c3cc(O)c(O)c(O)c3)c2)[C@@H](OC(=O)c2cc(O)c(O)c(OC(=O)c3cc(O)c(O)c(O)c3)c2)[C@@H]1OC(=O)c1cc(O)c(O)c(OC(=O)c2cc(O)c(O)c(O)c2)c1)c1cc(O)c(O)c(OC(=O)c2cc(O)c(O)c(O)c2)c1` [tannic acid, reference compound], the “ATP-induced current (TMEM16A)” value (TMEM16A) was “blocked”.

For CFTRinh-172 [reference compound], the CFTR chloride current (CFTR) was “blocked”.

With “[1-deamino-8-D-arginine]-vasopressin [dDAVP, reference compound]” the “urine osmolality after dDAVP” value (mice; control (formulation alone) mice) was over 3 Osm/kg H2O and the “urine osmolality following dDAVP” value (mice; dDAVP 1 μg/kg intraperitoneal, over several hours) was over 3000 mosm/kg H2O.
